According to patent US8618107B2 (Gilead Connecticut, Inc., priority 2010, dated 2013):

Tests used:
[1] = test system: CD69 on CD20 positive cells in human whole blood stimulated by anti-IgM; assay: CD69 Whole Blood Assay; type: cell-based; conditions: anti-human IgM stimulation, 20 hours
Protocol: Human blood is obtained from healthy volunteers, with the following restrictions: 1 week drug-free, non-smokers. Blood (approximately 20 mls to test 8 compounds) is collected by venipuncture into Vacutainer® (Becton, Dickinson and Co.) tubes with sodium heparin.
Solutions of Formula I compounds at 10 mM in DMSO are diluted 1:10 in 100% DMSO, then are diluted by three-fold serial dilutions in 100% DMSO for a ten point dose-response curve. The compounds are further diluted 1:10 in PBS and then an aliquot of 5.5 μl of each compound is added in duplicate to a 2 ml 96-well plate; 5.5 μl of 10% DMSO in PBS is added as control and no-stimulus wells. Human whole blood—HWB (100 μl) is added to each well. After mixing the plates are incubated at 37° C., 5% CO2, 100% humidity for 30 minutes. Goat F(ab′)2 anti-human IgM (10 μl of a 500 μg/ml solution, 50 μg/ml final) is added to each well (except the no-stimulus wells) with mixing and the plates are incubated for an additional 20 hours. At the end of the 20 hour incubation, samples are incubated with fluorescent labeled antibodies for 30 minutes, at 37° C., 5% CO2, 100% humidity. Include induced control, unstained and single stains for compensation adjustments and initial voltage settings. Samples are then lysed with PharM Lyse™ (BD Biosciences Pharmingen) according to the manufacturer's instructions. Samples are then transferred to a 96 well plate suitable to be run on the BD Biosciences HTS 96 well system on the LSRII machine. Data acquired and Mean Fluorescence Intensity values were obtained using BD Biosciences DIVA Software. Results are initially analyzed by FACS analysis software (Flow Jo). […] The IC50 values are calculated by Prism version 5, using a nonlinear regression curve fit.

[2] = test system: CD86 surface expression on CD19+/7AAD- mouse splenocytes stimulated with IgM; assay: CD86 Inhibition Assay; type: cell-based; conditions: Splenocyte; total mouse splenocytes (Balb/c), IgM stimulation 24 hr
Protocol: Following the 24 hr incubation, cells are transferred to conical bottom clear 96-well plates and pelleted by centrifugation at 1200×g×5 min. […] Cells are sorted on a BD FACSCalibur and gated on the CD19^+/7AAD^− population. The levels of CD86 surface expression on the gated population is measured versus test compound concentration.

SMILES	IC50 [1] [µM]	EC50 [2] [µM]
CN(Cc1cc(Nc2cc(-c3cc(F)cc(N4CCc5c(sc6c5CCCC6)C4=O)c3CO)cn(C)c2=O)nn1C)C1COC1 [Example 324, 5-[5-Fluoro-2-(hydroxymethyl)-3-{1-methyl-5-[(1-methyl-5-{[methyl(oxetan-3-yl)amino]methyl}-1H-pyrazol-3-yl)amino]-6-oxo-1,6-dihydropyridin-3-yl}phenyl]-8-thia-5-azatricyclo[7.4.0.0^2,7]trideca-1(9),2(7)-dien-6-one]	0.053	–
CN1CCN(c2ccc(Nc3cc(-c4cc(F)cc(N5CCn6c(cc7c6CCCC7)C5=O)c4CO)cn(C)c3=O)nc2)C(=O)C1 [Example 345, 2-(5-fluoro-2-(hydroxymethyl)-3-(1-methyl-5-(5-(4-methyl-2-oxopiperazin-1-yl)pyridin-2-ylamino)-6-oxo-1,6-dihydropyridin-3-yl)phenyl)-3,4,6,7,8,9-hexahydropyrazino[1,2-a]indol-1(2H)-one]	0.024	–
CN1CCCC1c1ccc(Nc2cc(-c3cc(F)cc(N4CCc5c(sc6c5CCCC6)C4=O)c3CO)cn(C)c2=O)nc1 (stereo in doubt) [Example 313, 5-[5-Fluoro-2-(hydroxymethyl)-3-(1-methyl-5-{[5-(2S)-(1-methylpyrrolidin-2-yl)pyridine-2-yl]amino}-6-oxo-1,6-dihydropyridin-3-yl)phenyl]-8-thia-5-azatricyclo[7.4.0.0^2,7]trideca-1(9),2(7)-dien-6-one]	0.044	0.006
CN1CCN(c2ccc(Nc3cc(-c4cc(F)cc(N5CCn6c(cc7c6CCCC7)C5=O)c4CO)cn(C)c3=O)nc2)CC1 [Example 197, 2-(5-fluoro-2-(hydroxymethyl)-3-(1-methyl-5-(5-(4-methylpiperazin-1-yl)pyridin-2-ylamino)-6-oxo-1,6-dihydropyridin-3-yl)phenyl)-3,4,6,7,8,9-hexahydropyrazino[1,2-a]indol-1(2H)-one]	0.023	0.022
